This note sets out measurements from patent US20240336653A1, “PEPTIDE COMPOUND TARGETING ELASTIN-DERIVED PEPTIDES AND USE THEREOF” (Shenzhen Turier Biotech Co., Ltd., priority 2020, published 2024).

Assay [1] concerns bleomycin induced pulmonary fibrosis. Briefly: Bleomycin (BLM) induced pulmonary fibrosis model in mice. Type of assay: in vivo, C57BL/6J mice. The note with it: 150 μg/kg daily intraperitoneal, 14 days, FIG. 5; for degree of pulmonary fibrosis (H&E staining and Masson staining): compared with bleomycin control group; for fibronectin in pulmonary parenchyma (α-SMA and Collagen1 immunohistochemistry): compared with bleomycin group. On the procedure:
(§1) Molding method: 78 male C57BL/6J mice, 16-18 g in weight and 6-8 weeks old, provided by Laboratory Animal Center, Sun Yat-sen University, randomly divided into 13 groups: 1) normal control group (Normal), n=6; 2) sham-operated saline control group (Saline), n=6; 3) bleomycin model group (BLM), n=6; and 4) model treatment group: administration of 150 μg/kg series compounds to mice, 10 groups in total, n=6/group. On the 7th day after the operation of bleomycin induced pulmonary fibrosis in mice, mice in the model treatment group are treated with drugs (administration frequency: daily administration/150 μg/kg, intraperitoneal injection). Samples are taken 14 days after administration, and pathological observations are recorded.
(§2) The bleomycin (purchased from TCI Shanghai)) induced pulmonary fibrosis model manifests the following pathological features: bronchiectasis, hydropic degeneration of bronchial epithelial cells, obvious edema and widening of alveolar interstitium, and deposition of a large number of fibroblasts and collagen tissue. The alveolar structure almost completely disappears, filled with fibrous connective tissue, and accompanied by inflammatory cell infiltration. After 14 days of administration, the mice in the model treatment group are treated and sampled. Blood is taken from the retrobulbar vein for detection of serological indicators, and […] is taken for pathological analysis.
(§3) H&E staining: paraffin embedded tissue sections are taken and baked at 60° C. for 1 h. Dewaxing and hydration: xylene for 20 minutes→xylene for 20 minutes→absolute alcohol for 15 minutes→absolute alcohol for 15 minutes→95% alcohol for 10 minutes→90% alcohol for 5 minutes→80% alcohol for 5 minutes. Staining: hematoxylin for 7 minutes→rinsing with tap water→differentiation with 1% hydrochloric acid alcohol for 1 s→rinsing with tap water→eosin staining for 15 s-20 s→rinsing with tap water. Dehydration and transparency: 75% alcohol for 1 s→85% alcohol for 1 s→95% alcohol for 1 s→100% alcohol for 1 s→xylene for 1 s→xylene for 1 s. The sections are aired for 30 minutes and sealed with gum.
Masson staining: drying and dewaxing; mordanting; adding celestine blue staining solution for 2-3 min, and washing with water; adding Mayer hematoxylin staining solution and washing with water; differentiating with acid alcohol differentiation liquid for several seconds, and washing with tap water; adding ponceau magenta staining solution and washing with distilled water; treating with phosphomolybdic acid solution; adding aniline blue staining solution for 5 min; treating with weak acid solution for 2 min; dehydration and transparency, airing and sealing with gum.
Immunohistochemistry: drying sections, dewaxing, and then soaking in double distilled water for 5 minutes. […]

For a further assay, the system named is TGF-β. Briefly: ELISA of TGFβ in serum of mice of the bleomycin model. The assay is classed as in vivo, C57BL/6J mice. Particulars: BLM mice, 150 μg/kg daily intraperitoneal, 14 days, FIG. 6-B. The procedure: as §1, §2
(§4) The occurrence and development of fibrotic diseases are related to TGF-β and MMP-9 induced EMT process. Matrix metalloproteinases (MMPs) are matrix degrading proteases that degrade all components of extracellular matrix. They participate in the pathophysiological process of pulmonary fibrosis, play an important role in the abnormal remodeling of extracellular matrix and destruction of basement membrane, and promote the recruitment of inflammatory cells and fibroblasts. The increased expression of MMP-9 in pulmonary fibrosis animal models and patients, higher than the normal MMP-9 level, may destroy normal tissue structure and increase the migration of inflammatory cells to the disease site. In order to further explore the inhibitory mechanism of polypeptide drugs on bleomycin induced pulmonary fibrosis, we detect the expression of TGFβ, MMP9 cell factors in serum of mice in each group by ELISA. […] We speculate that its mechanism should be related to TGF-β.
On the technique in general: In an ELISA, binding on a coated surface is turned into a signal by an enzyme label.

The test system of another assay is LX2 cells. Briefly: Activity evaluation in LX2 cell model (α-SMA protein expression). Type of assay: cell-based, human. Particulars: 1.0 μM and 10.0 μM, 48 hours incubation, GAPDH internal reference, FIG. 1. From the text:
In LX2 cell model (which can be directly used as the evaluation model of hepatic fibrosis cells in vitro, because LX2 cells are human liver activated stellate cells. The LX2 cells are purchased from China Center for Type Culture Collection of the Chinese Academy of Sciences, Shanghai, China), the anti-fibrosis activities of peptide compounds 1-25 are preliminarily screened, and the expression of the marker α-SMA protein of myofibroblast activation is detected. The peptide compounds 1-25 is subjected to cell incubation for 48 hours by using two concentrations (1.0 μM and 10.0 μM). The control group is given the same volume of Dulbecco's modified Eagle medium (DMEM) (purchased from Gibco in the United States), and GAPDH (purchased from TransGen Biotech) as the internal reference, α-actin (α-SMA) is a symbolic feature that distinguishes myoblast cells from myofibroblasts.

The subject of a further assay is MMP9. Briefly: ELISA of MMP9 in serum of mice of the bleomycin model. The assay is classed as in vivo, C57BL/6J mice. The note with it: BLM mice, 150 μg/kg daily intraperitoneal, 14 days, FIG. 6-A. The procedure:
as §1, §2, §4

For assay [2], the system named is CCl4 induced hepatic fibrosis. Briefly: Carbon tetrachloride (CCl4) induced hepatic fibrosis model in mice. The assay is classed as in vivo, C57BL/6J mice. The note with it: 100.0 μg/kg intraperitoneal, 3 weeks of administration; for aggregation of inflammatory cells in the liver (HE staining) / hepatic fibrosis of mice: FIG. 2; for expression of Collagen I in the liver (immunohistochemistry): FIG. 3; for collagen deposition in the liver (Sirius red staining): FIG. 4. The procedure: Molding method: 72 male C57BL/6J mice, male, 18-22 g in weight and 8 weeks old, provided by Laboratory Animal Center, Sun Yat-sen University, randomly divided into 12 groups: 1) control group (Oil)+saline, intraperitoneal injection, n=6; 2) model control group (CCl4)+saline, intraperitoneal injection, n=6; administration of CCl4 to mice once every three days for 6 weeks; 3) model administration group (CCl4)+100.0 μg/kg series of compounds (group 10), intraperitoneal injection, n=6/group. The mice in the control group are injected with corn oil at the same volume and frequency according to the administration volume of 20% CCl4 at the weight of 5.0 μL/g. Administration frequency: administration of CCl4 to mice once every three days for 6 weeks. After 3 weeks of administration of CCl4 to mice in the model administration group, peptide compounds 1, 5, 7, 11, 12, 13, 17, 18, 21 and 22 are administered for 3 weeks from the 4th week. CCl4 and Oil are purchased from Shanghai Aladdin Biochemical Technology Co., Ltd.
In the CCl4 induced hepatic fibrosis model, the manifestations are: inflammatory cell infiltration around the central vein area, hydropic degeneration of hepatic cells, and increased accumulation of collagen fibers in the portal area and the hepatic interlobular septum. After three weeks of administration, the mice are treated and sampled. Blood is taken from the retrobulbar vein for detection of serological indicators, and liver tissue is taken for pathological analysis.
as §3, with “Hematoxylin-eosin (H&E) staining: paraffin” for “H&E staining: paraffin”, “s→xylene for Is→xylene for 1” for “s→xylene for 1 s→xylene for 1”
Sirius red staining: drying and dewaxing; standing for 5.0 minutes in double distilled water; Sirius red staining for 60-80 minutes in a dark room; washing for 5 s with 0.5% glacial acetic acid; dehydration and transparency, sealing and taking photos.
Immunohistochemistry: drying sections, dewaxing, and then soaking in double distilled water for 5 minutes. Antigen retrieval: putting the shelf where pathological sections are placed into a beaker containing citric acid buffer (PH=6.0), and keeping it under high temperature and pressure for 15 minutes; taking out the beaker and letting it stand at room temperature until the temperature drops to the room temperature, then taking out the sections and putting them into 3.0% hydrogen peroxide for 10 minutes to block the endogenous peroxidase activity, and then washing them with PBS for three times, 5 minutes each time; sealing the tissues with 1.0% BSA for 1 h; removing 1.0% BSA, adding Collagen I antibody on the tissue according to the proportion recommended in the Description, and staying overnight at 4° C.; taking out the pathological sections next day, adding the second antibody with horseradish peroxidase after the room temperature is restored, incubating it at 37° C. for 60 minutes, and then use DAB (diaminobenzidine) ([…], USA) to develop color; and re-staining with hematoxylin staining solution, washing with tap water for 5 minutes, differentiating with 1% hydrochloric acid alcohol, then washing with tap water for 5 minutes again, dehydrating, airing, sealing, and taking photos (H&E staining solution and Sirius red staining solution are purchased from Sangon Biotech (Shanghai) Co., Ltd., and Collagen I antibody is purchased from CST Corporation).

*1 amine or outer side, *2 acyl side, *3 side chain or, on linkers, in order; H or OH if unused. Primed or numbered codes have the meaning given here. Where no end group is shown, it is not given here. [ ]: non-standard residue; d: D form. The star is where a group is joined. C20 diacid = O=C(O)CCCCCCCCCCCCCCCCCCC(=O)*; γGlu = O=C(O)[C@H](CCC(=O)[*:2])N[*:1]; Iva = CC[C@](C)(N)C(=O)O; PEG2′ = not defined here

With “(PEG2-PEG2-γGlu-CO(CH2)18CH3)-Val-Iva-Gly-Ser-Pro-Ser-Ala-Gln-Glu-Glu-Ala-Ser-Pro-Ala-NH2 (V[Iva]GSPSAQEEASPA-NH2; not fully specified (N-terminus); printed as (PEG2-PEG2-γGlu-CO(CH2)18CH3)-Val-Iva-Gly-Ser-Pro-Ser-Ala-Gln-Glu-Glu-Ala-Ser-Pro-Ala-NH2) [Compound 13]”, in assay [1], the “degree of pulmonary fibrosis (H&E staining and Masson staining)” value (shortened to “degree of pulmonary fibrosis”) is recorded as “significantly reduced”; the “fibronectin in pulmonary parenchyma (α-SMA and Collagen1 immunohistochemistry)” value (“fibronectin in pulmonary parenchyma” below) is recorded as “significantly less than that in bleomycin group”. Besides, the “concentration of TGF-β in serum of mice” value in the assay on TGF-β was “significantly reduce”. In addition, the “inhibiting and improving the activity of α-SMA (expression of α-SMA protein)” value (“inhibiting and improving the activity” for short) in the assay on LX2 cells was “better effects on inhibiting and improving the activity of α-SMA”. In the assay on MMP9, the “concentration of MMP9 in serum of mice” value is given as “significantly reduce”. Moreover, in assay [2], the “aggregation of inflammatory cells in the liver (HE staining)” value (“aggregation of inflammatory cells” below) is on record as “significantly improved”, the “hepatic fibrosis of mice” value is “significantly improved”, the “expression of Collagen I in the liver (immunohistochemistry)” value (shortened to “expression of Collagen I in the liver”) is “significant therapeutic improvement” and the “collagen deposition in the liver (Sirius red staining)” value (“collagen deposition in the liver” for short) is given as “significant therapeutic improvement”.
Take “Compound 18: cyclic peptide compound, head-to-tail amide (VVGSPSAQDEASPA; head-to-tail cyclisation; Compound 18)”: in assay [1], the “degree of pulmonary fibrosis” value was “significantly reduced”; the “fibronectin in pulmonary parenchyma” value is listed as “significantly less than that in bleomycin group”. Besides, the “concentration of TGF-β in serum of mice” value in the assay with TGF-β was “significantly reduce”. Moreover, the “inhibiting and improving the activity” value with LX2 cells was “better effects on inhibiting and improving the activity of α-SMA”. In addition, in the assay with MMP9, the “concentration of MMP9 in serum of mice” value is listed as “significantly reduce”. For the same substance, in assay [2], the “aggregation of inflammatory cells” value is listed as “significantly improved”, the “hepatic fibrosis of mice” value is “significantly improved”, the “expression of Collagen I in the liver” value was “significant therapeutic improvement” and the “collagen deposition in the liver” value is listed as “significant therapeutic improvement”.
For “Compound 22 (V[Iva]GSPSAQEEASPA; not fully specified (N-terminus, C-terminus))”, in assay [1], the “degree of pulmonary fibrosis” value is recorded as “significantly reduced”; the “fibronectin in pulmonary parenchyma” value was “significantly less than that in bleomycin group”. In addition, the “concentration of TGF-β in serum of mice” value in the assay on TGF-β is “significantly reduce”. The “inhibiting and improving the activity” value in the assay with LX2 cells is “better effects on inhibiting and improving the activity of α-SMA”. The “concentration of MMP9 in serum of mice” value in the assay with MMP9 is on record as “significantly reduce”. In addition, in assay [2], the “aggregation of inflammatory cells” value is on record as “significantly improved”, the “hepatic fibrosis of mice” value is listed as “significantly improved”, the “expression of Collagen I in the liver” value was “significant therapeutic improvement” and the “collagen deposition in the liver” value is “significant therapeutic improvement”.
In the case of “(PEG2-PEG2-γGlu-CO(CH2)18CO2H)-Val-Iva-Gly-Ser-Pro-Ser-Ala-Gln-Asp-Glu-Ala-Ser-Pro-Ala-NH2 ({C20 diacid-γGlu-PEG2′-PEG2′}-V[Iva]GSPSAQDEASPA-NH2) [Compound 5]”, in assay [1], the “degree of pulmonary fibrosis” value is “significantly reduced”; the “fibronectin in pulmonary parenchyma” value was “significantly less than that in bleomycin group”. The “concentration of TGF-β in serum of mice” value in the assay with TGF-β was “significantly reduce”. Moreover, the “inhibiting and improving the activity” value with LX2 cells was “better effects on inhibiting and improving the activity of α-SMA”. Further, the “concentration of MMP9 in serum of mice” value in the assay with MMP9 was “significantly reduce”. Further, in assay [2], the “aggregation of inflammatory cells” value is listed as “significantly improved”, the “hepatic fibrosis of mice” value was “significantly improved”, the “expression of Collagen I in the liver” value is “significant therapeutic improvement” and the “collagen deposition in the liver” value was “significant therapeutic improvement”.
